Measured values as given in the OPERA property sets (Mansouri et al. 2018).

Conditions: not given

Compound | melting point [°C] | boiling point [°C] | log10 vapour pressure (mmHg) | ready biodegradability | log10 Koc (L/kg) | log10 Henry constant (atm·m³/mol) | log10 Koa | log10 biodegradation half-life (days)
C[C@]12CC[C@@H](O)C[C@@H]1CC[C@@H]1[C@@H]2[C@H](O)C[C@]2(C)C(=O)CC[C@@H]12 | 235 | – | – | – | – | – | – | –
c1ccc(-c2ccc(-c3ccccc3)cc2)cc1 | 210 | 376 | -7 | not readily biodegradable | – | – | – | –
C=C(C)C(=O)OC(C)C | – | 125 | – | – | – | – | – | –
Cc1ccc(N=Nc2c(O)ccc3ccccc23)c([N+](=O)[O-])c1 | – | – | – | not readily biodegradable | – | – | – | –
C=CC1CCCCC1 | – | 128 | – | – | – | – | – | –
CCCBr | -110 | 71.1 | 2.04 | – | – | – | – | –
Cc1ccc(NC2=NCCN2)c(Cl)c1 | 149 | – | – | – | – | – | – | –
O=C1Nc2ccc(Br)cc2C1=O | 250 | – | – | – | – | – | – | –
CCN(CC)c1c([N+](=O)[O-])cc(C(F)(F)F)c(N)c1[N+](=O)[O-] | 98 | – | -5.44 | – | 3.63 | – | – | –
C1CCCNCC1 | – | 138 | 0.908 | – | – | -5.21 | – | –
CC(=NO)c1ccccc1 | 60 | 245 | – | – | – | – | – | –
CCCCCCCCCCCCBr | -9.5 | 276 | -2.41 | – | – | – | – | –
CC(C)(Cl)C(=O)O | 31 | – | – | – | – | – | – | –
O=C1OC(C(O)CO)C(O)=C1O (centres undefined) | 168 | – | – | – | – | – | – | –
CC(=O)c1ccc(OCC(=O)O)cc1 | 176 | – | – | – | – | – | – | –
C=CCC1=C(C)C(OC(=O)C2C(C=C(C)C)C2(C)C)CC1=O (centres undefined) | -40 | – | -5.92 | not readily biodegradable | – | – | – | –
CI | -66.4 | 42.5 | 2.61 | – | – | -2.28 | 2.16 | –
C[C@]12C[C@H](O)[C@H]3[C@@H](CCC4=CC(=O)CC[C@@]43C)[C@@H]1CC[C@@H]2C(=O)CO | 181 | – | – | – | – | – | – | –
FC(Cl)(Cl)I | -107 | 90 | – | – | – | – | – | –

Compound | melting point [°C] | boiling point [°C] | log10 vapour pressure (mmHg) | ready biodegradability | log10 Koc (L/kg) | log10 Henry constant (atm·m³/mol) | log10 Koa | log10 biodegradation half-life (days)
C[Si](C)(Cl)CBr | – | 131 | – | – | – | – | – | –
CS(=O)(=O)c1ccc2c(c1)N(CCCN1CCC(C(N)=O)CC1)c1ccccc1S2 | 170 | – | – | – | – | – | – | –
O=C1c2ccccc2C(=O)c2c(Cl)cccc21 | 163 | – | – | not readily biodegradable | – | – | – | –
Clc1c(Cl)c(Cl)c(-c2c(Cl)c(Cl)c(Cl)c(Cl)c2Cl)c(Cl)c1Cl | – | – | – | not readily biodegradable | – | – | – | –
CCCCCCCCCCCCSCCC(=O)OCC(COC(=O)CCSCCCCCCCCCCCC)(COC(=O)CCSCCCCCCCCCCCC)COC(=O)CCSCCCCCCCCCCCC | – | – | – | not readily biodegradable | – | – | – | –
Sc1ncc[nH]1 | 230 | – | – | – | – | – | – | –
COc1cc(C(=O)O)cc(OC)c1O | 208 | – | – | readily biodegradable | – | – | – | –
C#CC(C)(C)NC(=O)c1ccc(OC)cc1 | – | – | – | – | 1.83 | – | – | –
CCCCc1cccnc1 | – | 206 | – | – | – | – | – | –
BrCOCBr | -34 | 154 | – | – | – | – | – | –
Cc1ccc(O)c(C=O)c1 | 56 | 218 | – | – | – | – | – | –
CCCCC(=O)OCC(C)C | – | 179 | – | – | – | – | – | –
COC(=O)C(F)(F)F | – | 43.2 | – | – | – | – | – | –
CCOC(=O)c1cccc(N)c1 | – | 294 | – | – | – | – | – | –
CCOB(OCC)OCC | -84.8 | 120 | 1.22 | – | – | – | – | –
CCc1cc(C)cc(C)c1 | -84.3 | 184 | 0.0133 | – | – | – | – | 0.301
CC[N+](C)(C)CCN(C)CC[N+](C)(C)CC.[Br-].[Br-] | 214 | – | – | – | – | – | – | –
COc1cc(CC(=O)O)ccc1O | 144 | – | – | – | – | – | – | –
O=C1COc2ccccc21 | 102 | – | – | – | – | – | – | –

Compound | melting point [°C] | boiling point [°C] | log10 vapour pressure (mmHg) | ready biodegradability | log10 Koc (L/kg) | log10 Henry constant (atm·m³/mol) | log10 Koa | log10 biodegradation half-life (days)
COc1cccc(-c2cccc(OC)c2)c1 | 36 | 328 | – | – | – | – | – | –
Cc1ccc2c(c1Cl)C(=O)c1ccccc1C2=O | 170 | – | – | – | – | – | – | –
c1ccc2c(c1)Sc1ccccc1S2 | 159 | 365 | – | not readily biodegradable | – | – | – | –
CC(F)(Cl)Cl | -104 | 32 | 2.78 | – | – | – | – | –
C#C[C@]1(O)CC[C@H]2[C@@H]3CCC4=CC(=O)CCC4=C3C=C[C@@]21C | 169 | – | – | – | – | – | – | –
Cc1csc(C)c1 | – | 141 | – | – | – | – | – | –
CC(C)(O)Cc1ccc(Cl)cc1 | 34 | – | – | – | – | – | – | –
CN(C)[Si](C)(C)C | – | 86 | – | – | – | – | – | –
O=C(O)C1CC1 | 18.5 | 183 | -0.62 | – | – | – | – | –
FC(F)(Cl)C(F)(F)Cl | -94 | 3.8 | 3.3 | – | – | – | – | –
CCOc1cccc2ccccc12 | 5.5 | 280 | – | – | – | – | – | –
Cc1ccc(S(=O)(=O)c2coc(S(N)(=O)=O)c2)cc1 | 185 | – | – | – | – | – | – | –
c1ccc(Cn2cncn2)cc1 | 49 | – | – | – | – | – | – | –
C/C=C(/C)c1ccccc1 | – | 195 | – | – | – | – | – | –
CCCCCCCCON=O | – | 174 | – | – | – | – | – | –
CCCCCCCC/C=C\CCCCCCCCCCCCC | – | 378 | -4.45 | – | – | – | – | –
CCCCCSSCCCCC | – | – | -2.2 | – | – | – | – | –
Cc1cccc[n+]1[O-] | 49 | – | – | – | – | – | – | –

Same assay, conditions: fish

Compound | log10 BCF | log10 biotransformation half-life (days)
COP(=O)(OC)OC | 0.15 | –
O=[N+]([O-])c1ccccc1 | 0.67 | -0.93
CCCCCc1ccc(-c2ccccc2)cc1 | – | 0.03
Clc1cccc(-c2cccc(Cl)c2Cl)c1Cl | 4.23 | 2
ClCC(Cl)CCl | 1.11 | -0.53
Nc1ccc2c(O)cc(S(=O)(=O)O)cc2c1 | 0.38 | –
CCOP(=S)(OCC)ON=C(C#N)c1ccccc1 | – | 0.84
O=C1c2ccccc2C(=O)c2c(Cl)cccc21 | 2.3 | -0.23
Clc1c(Cl)c(Cl)c(-c2c(Cl)c(Cl)c(Cl)c(Cl)c2Cl)c(Cl)c1Cl | 4.24 | 2.86
